Measured values: the supplement of paper PMC10307832

Columns and labels:
Experiment in all cases: relative viability (nuclei count vs DMSO), 5 days (fraction); higher = more cells survive
Linsitinib + Lapatinib = compound: C[C@]1(O)C[C@@H](c2nc(-c3ccc4ccc(-c5ccccc5)nc4c3)c3c(N)nccn32)C1 [Linsitinib] + CS(=O)(=O)CCNCc1ccc(-c2ccc3ncnc(Nc4ccc(OCc5cccc(F)c5)c(Cl)c4)c3c2)o1 [Lapatinib] (partner 2 µM)
In short: (§1)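 Nuclei were stained with Hoechst during a one-step fixation (final 0.05% Triton X-100, 1% formaldehyde, 1 ug/ml Hoechst) carried out 5 days after dosing, then counted on 4× images. The cells, lung cancer lines in 1536-well plates, had been dosed by pin tool the day after seeding with one drug alone or a fixed anchor-drug dose plus five library-drug doses (not always all listed) in √10 steps. Relative viability is the nuclei count in treated wells divided by that in vehicle wells, and each value is the median of duplicate plates.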

Linsitinib + Vorinostat = compound: C[C@]1(O)C[C@@H](c2nc(-c3ccc4ccc(-c5ccccc5)nc4c3)c3c(N)nccn32)C1 [Linsitinib] + O=C(CCCCCCC(=O)Nc1ccccc1)NO [Vorinostat] (partner 1 µM)
In short: as §1

Ispinesib + Palbociclib = compound: Cc1ccc(C(=O)N(CCCN)[C@@H](c2nc3cc(Cl)ccc3c(=O)n2Cc2ccccc2)C(C)C)cc1 [Ispinesib] + CC(=O)c1c(C)c2cnc(Nc3ccc(N4CCNCC4)cn3)nc2n(C2CCCC2)c1=O [Palbociclib] (partner 0.5 µM)
In short: as §1

Ispinesib + Linsitinib = compound: Cc1ccc(C(=O)N(CCCN)[C@@H](c2nc3cc(Cl)ccc3c(=O)n2Cc2ccccc2)C(C)C)cc1 [Ispinesib] + C[C@]1(O)C[C@@H](c2nc(-c3ccc4ccc(-c5ccccc5)nc4c3)c3c(N)nccn32)C1 [Linsitinib] (partner 1 µM)
In short: as §1

Row | Cell Line | relative viability (Linsitinib + Lapatinib; first compound 0.01 µM) | relative viability (Linsitinib + Lapatinib; first compound 0.03162 µM) | relative viability (Linsitinib + Lapatinib; first compound 0.1 µM) | relative viability (Linsitinib + Lapatinib; first compound 0.3162 µM) | relative viability (Linsitinib + Lapatinib; first compound 1 µM) | relative viability (Linsitinib + Vorinostat; first compound 0.01 µM) | relative viability (Linsitinib + Vorinostat; first compound 0.03162 µM) | relative viability (Linsitinib + Vorinostat; first compound 0.1 µM) | relative viability (Linsitinib + Vorinostat; first compound 0.3162 µM) | relative viability (Linsitinib + Vorinostat; first compound 1 µM) | relative viability (Ispinesib + Palbociclib; first compound 0.001 µM) | relative viability (Ispinesib + Palbociclib; first compound 0.003162 µM) | relative viability (Ispinesib + Palbociclib; first compound 0.01 µM) | relative viability (Ispinesib + Palbociclib; first compound 0.03162 µM) | relative viability (Ispinesib + Palbociclib; first compound 0.1 µM) | relative viability (Ispinesib + Linsitinib; first compound 0.001 µM) | relative viability (Ispinesib + Linsitinib; first compound 0.003162 µM) | relative viability (Ispinesib + Linsitinib; first compound 0.01 µM) | relative viability (Ispinesib + Linsitinib; first compound 0.03162 µM) | relative viability (Ispinesib + Linsitinib; first compound 0.1 µM)
1 | NCI-H1651 | 0.761 | 0.772 | 0.78 | 0.667 | 0.566 | 0.267 | 0.535 | 0.5 | 0.543 | 0.484 | 0.526 | 0.57 | 0.61 | 0.518 | 0.576 | 1.16 | 0.921 | 1.18 | 1.05 | 0.203
2 | HCC-78 | 0.364 | 0.651 | 0.514 | 0.676 | 0.542 |  | 0.47 | 0.462 | 0.402 | 0.315 | 0.427 | 0.586 | 0.516 | 0.473 | 0.351 | 0.51 | 0.498 | 0.509 |  | 0.151
3 | NCI-H23 | 1.19 | 0.904 | 1.04 | 0.21 | 0.587 | 0.633 | 0.327 | 0.765 | 0.174 | 0.303 | 0.457 | 0.529 | 0.629 | 0.372 | 0.187 | 0.568 | 0.559 | 0.707 | 0.618 | 0.28
4 | LOU-NH91 | 0.698 | 0.655 | 0.706 | 0.741 | 0.579 | 0.983 | 0.817 | 0.914 | 0.735 | 0.76 | 0.535 | 0.548 | 0.513 | 0.52 | 0.336 | 0.875 | 0.908 | 0.887 | 0.695 | 0.677
5 | LXF-289 | 0.924 | 0.911 | 0.901 | 0.643 | 0.886 | 0.735 | 0.69 | 0.755 | 0.473 | 0.729 | 0.629 | 0.666 | 0.674 | 0.619 | 0.589 | 0.914 | 0.987 | 1.09 | 0.936 | 0.542
6 | NCI-H460 | 1 | 0.784 | 1.03 | 0.699 | 0.868 | 0.694 | 0.644 | 0.692 |  | 0.601 | 0.288 | 0.181 | 0.184 | 0.0542 | 0.0736 | 1.02 | 0.922 | 1.09 | 0.268 | 0.0336
7 | EMC-BAC-2 | 0.914 | 0.893 | 0.806 | 0.686 | 0.694 | 0.44 | 0.441 | 0.426 | 0.398 | 0.214 | 0.509 | 0.556 | 0.506 | 0.432 | 0.431 | 0.831 | 0.847 | 0.858 | 0.614 | 0.487
8 | CAL-12T | 0.705 | 0.613 | 0.655 | 0.576 | 0.518 | 0.69 | 0.744 | 0.727 | 0.524 | 0.569 | 0.452 | 0.409 | 0.29 | 0.177 | 0.195 | 0.98 | 0.784 | 0.785 | 0.778 | 0.193
